In article PMC9780108, “An intrinsically disordered antimicrobial peptide dendrimer from stereorandomized virtual screening” (Cell Reports. Physical Science, 2022):
Converted amounts (≈) assume the structure as drawn. Positions of bridges follow the written chain, without caps; N, C: chain ends. Non-standard residues stand in square brackets, D forms with d. Residues, ends and D or L forms follow the SMILES beside them. Groups on a side chain read outwards from the residue. Chains are numbered I, II in the order given. *: point of attachment. X3 = CC(C)C[C@H](NC(=O)CCCCCN)C(=O)NCCCC[C@H](NC(=O)[C@H](CC(C)C)NC(=O)CCCCCN)C(=O)*; Ahx = NCCCCCC(=O)O

Experiments:
A. baumannii ATCC 19606 = conditions: for MIC at pH 5.0, A. baumannii ATCC 19606: ATCC 19606, pH 5; for MIC at pH 7.4, A. baumannii ATCC 19606: ATCC 19606, pH 7.4; for MIC at pH 8.0, A. baumannii ATCC 19606: ATCC 19606, pH 8
P. aeruginosa PA14 = conditions: PA14, pH 7.4
P. aeruginosa ZEM9A = conditions: ZEM9A, pH 7.4
P. aeruginosa PAO1 = conditions: for MIC at pH 5.0, P. aeruginosa PAO1: PAO1, pH 5; for MIC at pH 7.4, P. aeruginosa PAO1: PAO1, pH 7.4; for MIC at pH 8.0, P. aeruginosa PAO1: PAO1, pH 8
[1] = tested on: S aureus COL (methicillin-resistant Staphylococcus aureus); conditions: for MIC at pH 5.0, S aureus COL: COL (methicillin-resistant, pH 5); for MIC at pH 7.4, S aureus COL: COL (methicillin-resistant, pH 7.4); for MIC at pH 8.0, S aureus COL: COL (methicillin-resistant, pH 8)
P. aeruginosa ZEM-1A = conditions: ZEM-1A, pH 7.4
S. maltophilia = conditions: pH 7.4
K. pneumoniae OXA-48 = conditions: OXA-48, pH 7.4
E. cloacae = conditions: pH 7.4
B. cenocepacia = conditions: pH 7.4
E. coli W3110 = conditions: for MIC at pH 5.0, E. coli W3110: W3110, pH 5; for MIC at pH 7.4, E. coli W3110: W3110, pH 7.4; for MIC at pH 8.0, E. coli W3110: W3110, pH 8
K. pneumoniae NCTC 418 = conditions: for MIC at pH 5.0, K. pneumoniae NCTC 418: NCTC 418, pH 5; for MIC at pH 7.4, K. pneumoniae NCTC 418: NCTC 418, pH 7.4; for MIC at pH 8.0, K. pneumoniae NCTC 418: NCTC 418, pH 8
S. aureus Newman = conditions: Newman, pH 7.4
HEK293 cell line = format: cell-based; conditions: 48 h
Procedure: HEK 293 cell line were cultured and maintained in DMEM (Dulbeccos modified Eagle
medium, Sigma Aldrich) supplemented with 10% FBS (Sigma Aldrich) and 1%
penicillin/streptomycin. Cells were incubated in a humidified incubator at 37°C in the presence
HEK 293 cell were seeded into 96 well plates at the density of 2 × 10^3 cells/well and incubated
in DMEM containing 10% FBS for 10-14 hours at 37°C in the presence of 5% CO2. The next
day, stock solution of compounds were prepared at concentration of 2 mg/mL in DMEM
containing 10% FBS. 1/2 or 1/3 serial dilution of the peptide dendrimers from 2 mg/mL or 200
µg/mL were performed in DMEM containing 10% FBS. The medium was removed from cell
culture and replaced with the compounds at different concentration after washing with PBS.
The cells were incubated in DMEM containing 10% FBS at 37°C in the presence of 5% CO 2.
Negative control was untreated cell culture without compounds and blank control was wells
without cell but only medium. After 48 hours, a final concentration of 10% AlamarBlue®
(Thermo Fisher Scientific, Reinach, CH) was added to each well . The cells were incubated for
3-5 hours at 37°C with 5% CO 2. The fluorescence was then measured on a Tecan Infinite
M1000 Pro plate reader at λex = 560 nm and λem = 590 nm. The value was normalized
according to the untreated cells.

MIC at pH 5.0, A. baumannii ATCC 19606 (A. baumannii ATCC 19606) [μg/mL]	MIC at pH 7.4, A. baumannii ATCC 19606 (A. baumannii ATCC 19606) [μg/mL]	MIC at pH 8.0, A. baumannii ATCC 19606 (A. baumannii ATCC 19606) [μg/mL]	MIC at pH 5.0, P. aeruginosa PAO1 (P. aeruginosa PAO1)	MIC at pH 7.4, P. aeruginosa PAO1 (P. aeruginosa PAO1)	MIC at pH 8.0, P. aeruginosa PAO1 (P. aeruginosa PAO1)	MIC at pH 5.0, S aureus COL [1] [μg/mL]	MIC at pH 7.4, S aureus COL [1] [μg/mL]	MIC at pH 8.0, S aureus COL [1] [μg/mL]	MIC at pH 5.0, E. coli W3110 (E. coli W3110) [μg/mL]	MIC at pH 7.4, E. coli W3110 (E. coli W3110) [μg/mL]	MIC at pH 8.0, E. coli W3110 (E. coli W3110) [μg/mL]	MIC at pH 5.0, K. pneumoniae NCTC 418 (K. pneumoniae NCTC 418)	MIC at pH 7.4, K. pneumoniae NCTC 418 (K. pneumoniae NCTC 418)	MIC at pH 8.0, K. pneumoniae NCTC 418 (K. pneumoniae NCTC 418)	SMILES	IC50 HEK293 (HEK293 cell line) [µg/mL]	further results
16	8	4	16 μg/mL	4 μg/mL	4 μg/mL	> 64	> 64	4	8	4	4	> 64 μg/mL	> 64 μg/mL	16 μg/mL	CC(C)C[C@@H](NC(=O)[C@H](N)CCCCN)C(=O)NCCCC[C@@H](NC(=O)[C@@H](CC(C)C)NC(=O)[C@H](N)CCCCN)C(=O)N[C@H](CC(C)C)C(=O)NCCCC[C@@H](NC(=O)[C@@H](CC(C)C)NC(=O)[C@@H](CCCCNC(=O)[C@@H](CC(C)C)NC(=O)[C@H](N)CCCCN)NC(=O)[C@@H](CC(C)C)NC(=O)[C@H](N)CCCCN)C(=O)N[C@H](CCCCN)C(=O)N[C@H](CC(C)C)C(=O)N[C@H](CC(C)C)C(=O)NCCCC[C@@H](NC(=O)[C@@H](CC(C)C)NC(=O)[C@@H](CC(C)C)NC(=O)[C@@H](CCCCN)NC(=O)[C@@H](CCCCNC(=O)[C@@H](CC(C)C)NC(=O)[C@@H](CCCCNC(=O)[C@@H](CC(C)C)NC(=O)[C@H](N)CCCCN)NC(=O)[C@@H](CC(C)C)NC(=O)[C@H](N)CCCCN)NC(=O)[C@@H](CC(C)C)NC(=O)[C@@H](CCCCNC(=O)[C@@H](CC(C)C)NC(=O)[C@H](N)CCCCN)NC(=O)[C@@H](CC(C)C)NC(=O)[C@H](N)CCCCN)C(=O)N[C@H](CC(C)C)C(=O)N[C@H](CCCCN)C(=O)N[C@H](CCCCN)C(N)=O [D-X22] (HELM PEPTIDE1{[dK].[dL].[dK].[dL].[dK].[dK].[dL].[dL].[dK].[dL].[dK].[dK].[am]}|PEPTIDE2{[CC(C)C[C@@H](NC(=O)[C@H](N)CCCCN)C(=O)NCCCC[C@@H](NC(=O)[C@@H](CC(C)C)NC(=O)[C@H](N)CCCCN)C(=O)[*:2]].[dL]}|PEPTIDE3{[dK].[dL]}|PEPTIDE4{[dK].[dL].[dK].[dL].[dK].[dK].[dL].[dL]}|PEPTIDE5{[CC(C)C[C@@H](NC(=O)[C@H](N)CCCCN)C(=O)NCCCC[C@@H](NC(=O)[C@@H](CC(C)C)NC(=O)[C@H](N)CCCCN)C(=O)[*:2]].[dL]}|PEPTIDE6{[dK].[dL]}$PEPTIDE1,PEPTIDE2,5:R3-2:R2|PEPTIDE1,PEPTIDE3,3:R3-2:R2|PEPTIDE4,PEPTIDE5,5:R3-2:R2|PEPTIDE4,PEPTIDE6,3:R3-2:R2|PEPTIDE1,PEPTIDE4,9:R3-8:R2$$$V2.0)	–	MIC, P. aeruginosa PA14 (P. aeruginosa PA14): 4 µg/mL (≈ 0.914 µM); MIC, P. aeruginosa ZEM9A (P. aeruginosa ZEM9A): 8 µg/mL (≈ 1.83 µM); MIC, P. aeruginosa ZEM-1A (P. aeruginosa ZEM-1A): 4 µg/mL (≈ 0.914 µM); MIC, S. maltophilia (S. maltophilia): 4 µg/mL (≈ 0.914 µM); MIC, K. pneumoniae OXA-48 (K. pneumoniae OXA-48): 4 µg/mL (≈ 0.914 µM); MIC, E. cloacae (E. cloacae): 8 µg/mL (≈ 1.83 µM); MIC, B. cenocepacia (B. cenocepacia): >64 µg/mL; MIC, S. aureus Newman (S. aureus Newman): 64 µg/mL (≈ 14.6 µM)
32	64	32	64/>64/64 μg/mL	64/>64/64 μg/mL	64/>64/64 μg/mL	> 64	> 64	32	32	> 64	32	>64/>64/>64 μg/mL	>64/>64/>64 μg/mL	>64/>64/>64 μg/mL	CC(C)C[C@H](NC(=O)[C@H](CC(C)C)NC(=O)[C@H](CC(C)C)NC(=O)[C@H](CCCCNC(=O)[C@H](CC(C)C)NC(=O)[C@H](CC(C)C)NC(=O)[C@H](CCCCNC(=O)[C@H](CCCCN)NC(=O)[C@H](CC(C)C)NC(=O)[C@H](CCCCNC(=O)[C@H](CC(C)C)NC(=O)CCCCCN)NC(=O)[C@H](CC(C)C)NC(=O)CCCCCN)NC(=O)[C@H](CCCCN)NC(=O)[C@H](CC(C)C)NC(=O)[C@H](CCCCNC(=O)[C@H](CC(C)C)NC(=O)CCCCCN)NC(=O)[C@H](CC(C)C)NC(=O)CCCCCN)NC(=O)[C@H](CC(C)C)NC(=O)[C@H](CC(C)C)NC(=O)[C@H](CCCCNC(=O)[C@H](CCCCN)NC(=O)[C@H](CC(C)C)NC(=O)[C@H](CCCCNC(=O)[C@H](CC(C)C)NC(=O)CCCCCN)NC(=O)[C@H](CC(C)C)NC(=O)CCCCCN)NC(=O)[C@H](CCCCN)NC(=O)[C@H](CC(C)C)NC(=O)[C@H](CCCCNC(=O)[C@H](CC(C)C)NC(=O)CCCCCN)NC(=O)[C@H](CC(C)C)NC(=O)CCCCCN)C(N)=O [L-aX18] (I: H-[Ahx]LK([Leu-Ahx])LKK([Lys-Leu-X3])LLKLLL-NH2 / II: H-[Ahx]LK([Leu-Ahx])LKK([Lys-Leu-X3])LL; amide I:9-II:C)	14 ± 0.6 (≈ 3.12 µM)	–
2	4	4	16 μg/mL	8 μg/mL	16 μg/mL	64	16	4	2	4	4	64 μg/mL	8 μg/mL	8 μg/mL	CC(C)C[C@H](NC(=O)CCCCCN)C(=O)NCCCC[C@H](NC(=O)[C@H](CC(C)C)NC(=O)CCCCCN)C(=O)N[C@@H](CC(C)C)C(=O)NCCCC[C@H](NC(=O)[C@H](CC(C)C)NC(=O)[C@H](CCCCNC(=O)[C@H](CC(C)C)NC(=O)CCCCCN)NC(=O)[C@H](CC(C)C)NC(=O)CCCCCN)C(=O)N[C@@H](CCCCN)C(=O)N[C@@H](CC(C)C)C(=O)N[C@@H](CC(C)C)C(=O)NCCCC[C@H](NC(=O)[C@H](CC(C)C)NC(=O)[C@H](CC(C)C)NC(=O)[C@H](CCCCN)NC(=O)[C@H](CCCCNC(=O)[C@H](CC(C)C)NC(=O)[C@H](CCCCNC(=O)[C@H](CC(C)C)NC(=O)CCCCCN)NC(=O)[C@H](CC(C)C)NC(=O)CCCCCN)NC(=O)[C@H](CC(C)C)NC(=O)[C@H](CCCCNC(=O)[C@H](CC(C)C)NC(=O)CCCCCN)NC(=O)[C@H](CC(C)C)NC(=O)CCCCCN)C(=O)N[C@@H](CC(C)C)C(=O)N[C@@H](CCCCN)C(=O)N[C@@H](CCCCN)C(N)=O [L-aX22] (I: H-[Ahx]LK([Leu-Ahx])LK([Leu-X3])KLLKLKK-NH2 / II: H-[Ahx]LK([Leu-Ahx])LK([Leu-X3])KLL; amide I:9-II:C)	24 ± 3 (≈ 5.64 µM)	–
